From article PMC9170106, “Pre-clinical evaluation of LASSBio-1491: From in vitro pharmacokinetic study to in vivo leishmanicidal activity” (PLoS ONE, 2022)
Values joined by “and” are separate entries in the source; they are usually repeats but may differ in a detail not shown here. Equal values may be shown once.

Columns and labels:
[1] = tested on: L. major promastigote LV39 substrain; experiment: In vitro activity against promastigotes, LV39; format: cell-based; conditions: Leishmania major
Description: (§1) L. major promastigotes LV39 (MRHO/SU/59/P) were obtained from João […] Preto Medical School- USP. L. major IOC/[…] promastigotes (MHOM/SU/1973/5-ASKH) were obtained from Leishmania collection of the Oswaldo Cruz Institute-Fiocruz. L. major promastigotes LV39 (MRHO/SU/59/P) and L. major IOC/[…] (MHOM/SU/1973/5-ASKH) were grown in a Schneider's medium (Sigma-Aldrich, St. […] The determination of the leishmanicidal activity of LASSBio-1491 against L. major promastigotes was carried out according to the methodology described by […] and colleagues (1996). […] After 48h of incubation in a Biochemical Oxygen Demand (B.O.D.) incubator, the promastigotes were counted using a hemocytometer. The results obtained were expressed as the mean ± S.E.M. of the number of promastigotes from triplicate cultures of representative assays, with the data analyzed by ANOVA and Dunnett hoc tests, considering a significance level of p < 0.05.

[2] = Plasma stability; format: in vitro ADME, rat
Description: For analysis of plasma stability, the LASSBio-1491 in a final concentration of 5 μM from stock solution of 1 mM, was added in 50 μL of rat plasma solution diluted in 250 μL with PBS (pH 7.4) and was placed in a shaker at 37 °C under vigorous stirring for 0, 30, 60, 120 and 240 minutes. After each reaction time, 500 μL of cold methanol and 500 μL of cold acetonitrile containing 5 uM of methyl 1,1’biphenyl-4-carboxylate 5 μM (internal standard) were added to the wells to stop the reaction. The solution was mixed and centrifuged at 24500 x g for 15 min (Universal centrifuge 320R Hettich®). The supernatant (1 mL) was filtrated and placed in vials to be analyzed by HPLC-PDA, Shimadzu—LC20AD, Kromasil C-18 column (4.6 mm x 250 mm, 5 μm), SPD M20A diode array detector, flow 1 mL/min, mobile phase acetonitrile: water 1:1 (v/v) for LASSBio-1491 and acetonitrile: water 60:40 (v/v) for LASSBio-1736, for 20 minutes at 254 nm wavelength.

[3] = tested on: peritoneal macrophages infected with L. major LV39; experiment: Nitrite measurement (Griess reaction) in infected macrophages; format: cell-based, BALB/c mice; conditions: BALB/c macrophages infected with L. major LV39
Description: Briefly, female BALB/c mice (6 to 8 weeks old) received 1 mL sterile of 3% sodium thioglycolate by intraperitoneal route (i.p.) and were euthanized after 4 days. The intraperitoneal lavage was collected from the peritoneal cavity of mice using sterile PBS and cells were counted in a hemocytometer. Peritoneal adherent cells (macrophages) were plated at a concentration of 2 x 10^5 cells per well in 24-well culture plates containing glass coverslips. Subsequently, L. major promastigotes (harvested after the third passage) were added at a concentration of 2 x 10^6 parasites per well, aiming to infect the macrophages. […] After 24 hours in an incubator at 37 °C and 5% CO2, the coverslips were washed with PBS and stained with Giemsa-May Grünwald. The number of amastigotes in 100 macrophages was determined by counting using optical microscope (100x objective). Furthermore, the cell culture supernatant was also collected for nitrite measurement using the Griess reaction, an indirect way of determining the concentration of nitric oxide in the supernatant of infected macrophages from the experimental groups. The results obtained were expressed as the mean ± S.E.M. of the number of amastigotes or nitrite concentration from duplicate cultures of representative assays, with the data analyzed by ANOVA and Dunnett hoc tests, considering a significance level of p < 0.05. […]

[4] = PAMPA-BBB permeability
From the text: The parallel artificial membrane permeability assay uses 96-well plate in a “sandwich” type system, where one plate overlaps the other (PAMPA). […] The lipid mixture that impregnates the PVDF filter has a different constitution for the permeability tests for the blood-brain barrier (Brain lipid from pig extract in dodecane) and gastro-intestinal tract (L-α soy phosphatidylcholine in dodecane). In the PAMPA BBB and TGI assays, the optical density values obtained in the reading at each selected wavelength, for each of the compounds were analyzed in comparison with the values of several controls. In the case of the BBB, these values were used to elaborate an equation and determine the permeability coefficient (Pe), using a previously elaborated spreadsheet, and, for the TGI, these values were used to determine the absorbed fraction (Fa%), both using the Excel® program.

[5] = Microsomal metabolism; format: in vitro ADME; conditions: rat liver microsomes, without NADPH regenerating system
[6] = tested on: L. major promastigote 5-ASKH substrain; experiment: In vitro activity against promastigotes, 5-ASKH; format: cell-based, Leishmania major
Description: as §1

[7] = tested on: L. major amasitigote 5-ASKH substrain; experiment: In vitro activity against intramacrophage amastigotes, 5-ASKH; format: cell-based; conditions: Leishmania major
Description: Briefly, female BALB/c mice (6 to 8 weeks old) received 1 mL sterile of 3% sodium thioglycolate by intraperitoneal route (i.p.) and were euthanized after 4 days. The intraperitoneal lavage was collected from the peritoneal cavity of mice using sterile PBS and cells were counted in a hemocytometer. Peritoneal adherent cells (macrophages) were plated at a concentration of 2 x 10^5 cells per well in 24-well culture plates containing glass coverslips. Subsequently, L. major promastigotes (harvested after the third passage) were added at a concentration of 2 x 10^6 parasites per well, aiming to infect the macrophages. […] After 24 hours in an incubator at 37 °C and 5% CO2, the coverslips were washed with PBS and stained with Giemsa-May Grünwald. The number of amastigotes in 100 macrophages was determined by counting using optical microscope (100x objective). Furthermore, the cell culture supernatant was also collected for nitrite measurement using the Griess reaction, an indirect way of determining the concentration of nitric oxide in the supernatant of infected macrophages from the experimental groups. The results obtained were expressed as the mean ± S.E.M. of the number of amastigotes or nitrite concentration from duplicate cultures of representative assays, with the data analyzed by ANOVA and Dunnett hoc tests, considering a significance level of p < 0.05. In addition, the linear regression analysis from the Kc values at employed concentrations was used to determine the IC50.

[8] = Aqueous solubility by UV spectroscopy; format: physicochemical; conditions: phosphate buffer solution, buffer solution pH 7.4, 37 °C
Description: The solubility assay was carried out by correlating the concentration with the absorbance obtained by ultraviolet. First, a stock solution of the compound was prepared by dissolving 1 mg in 20 mL of methanol, and then the wavelength of greatest absorption of each compound was obtained by scanning between wavelengths from 200 nm to 500 nm. From the stock solution, six dilutions were prepared (dilution factor: 2.5), and the absorbance reading was performed in quartz cuvettes (10 mm optical path) in the UV-VIS spectrophotometer (Femto 800XI) at the previously determined wavelength. With the values obtained, a calibration curve with linear regression was made, in which the linearity of the analytical method is observed, with values of correlation coefficient (p > 0.95).
The compound was dissolved in a phosphate buffer solution (pH 7.4), prepared according to the Brazilian Pharmacopoeia (Vol.1) to obtain a supersaturated solution. The supersaturated aqueous solution was kept under stirring for 4 hours at 37°C and then the sample was filtered on a 0.45 μm filter to carry out the reading at the corresponding wavelength of the compound. The solubility was then determined through the equation of the straight line obtained by the linear regression of the calibration curve of each compound [19].

- IC50 ([1]; promastigote LV39, 48 h): 7.7 ± 0.1 µM
- Elimination rate constant (k) ([2]; rat plasma): 0.0006
- t1/2 ([2]; rat plasma): 19.25 h
- Metabolism rate ([2]; rat plasma, 5 μM, 37 °C, up to 240 min): 15.11%
- half-life at 5 μM ([2]; rat, rat plasma diluted with PBS, pH 7.4, rat plasma): 28.9 h
- recovery at 5 μM ([2]; rat, rat plasma diluted with PBS, pH 7.4, read-out: Recovery rate): 88.5%
- Papp ([4]; PAMPA): 2.96 ×10⁻⁶ cm/s
- Classification ([4]; PAMPA-BBB): CNS+/-
- Metabolism rate non co-factor [5]: 10.87%
- IC50 ([6]; Leishmania major, 48 h): 7.5 ± 0.3 µM
- IC50 ([7]; Macrophage, amastigote 5-ASKH in macrophages, 24 h): 7.3 ± 0.6 µM
- solubility at 4 h [8]: 8.72 µM and 3.06 µg/mL
Structure (SMILES): O=C(N/N=C/c1ccc([N+](=O)[O-])o1)NNC(=O)c1ccc(Cl)cc1 [LASSBio-1491]
- Emax ([1]; promastigote LV39, read-out: Maximum effect (% ± S.E.M.)): 68.3 ± 0.2%
- NO production (nitrite) [3]: increased NO production
- times less potent than pentamidine [6]: about 10 times
- Emax ([6]; Leishmania major, read-out: Maximum effect (% ± S.E.M.)): 68.4 ± 0.1%
- Emax ([7]; amastigote 5-ASKH, read-out: Maximum effect (% ± S.E.M.)): 67.5 ± 4.8%
